Assay results: patent US20040209776A1, “Azole derivatives useful as insecticide” (priority 2001, published 2004)

Key:
Meloidogyne incognita = assay: In vitro test against root knot nematodes suspended in liquid composition; format: in vivo; conditions: 12.5 ppm by weight, no SYNPERONIC NP8, read-out: Mi mortality (score)
Description: (§1) This Example illustrates the pesticidal/insecticidal properties of compounds of formula (I). The activities of individual compounds of formula (I) were determined using a variety of pests. The pests were treated with a liquid composition containing 500 parts per million (ppm) by weight of a compound of formula (I). Each composition was made by dissolving the compound in an acetone and ethanol (50:50 by volume) mixture and diluting the solution with water containing 0.05% by volume of a wetting agent, SYNPERONIC NP8, until the liquid composition contained the required concentration of the compound. SYNPERONIC is a registered trade mark.
Tests were also conducted against root knot nematodes (Meloidogyne incognita) using an in vitro test in which nematodes were suspended in a liquid composition which had been prepared as described above except that it contained a concentration of 12.5 ppm by weight of a compound of formula (I) and it contained no SYNPERONIC NP8.

Myzus persicae = assay: Pest mortality test against peach potato aphids, infested Chinese cabbage leaves sprayed; format: in vivo; conditions: 72 h, 500 ppm by weight, sprayed on infested Chinese cabbage leaves, mortality assessed after three days, read-out: Mp mortality (score)
Description: as §1
(§2) The test procedure adopted with regard to each pest was essentially the same and comprised supporting a number of the pests on a medium, which was usually a substrate, a host plant or a foodstuff on which the pests feed, and treating either or both the medium and the pests with a composition. Pest mortality was assessed usually between two and five days after treatment.
In each test against peach potato aphids (Myzus persicae), Chinese cabbage leaves were infested with aphids, the infested leaves were sprayed with a test composition and pest mortality was assessed after three days.

Diabrotica balteata = assay: Pest mortality test against corn root worm; format: in vivo; conditions: 120 h, 500 ppm by weight, mortality assessed usually between two and five days after treatment, read-out: Db mortality (score)
Description: as §1, §2
(§3) Similar tests were conducted against, independently, two-spotted spider mites (Tetranychus urticae), fruit flies (Drosophila melanogaster), tobacco budworms (Heliothis virescens), diamond back moth (Plutella xylostella) and corn root worm (Diabrotica balteata).

Drosophila melanogaster = assay: Pest mortality test against fruit flies; format: in vivo; conditions: 120 h, 500 ppm by weight, mortality assessed usually between two and five days after treatment, read-out: Dm mortality (score)
Description: as §1, §2, §3

Heliothis virescens = assay: Pest mortality test against tobacco budworms; format: in vivo; conditions: 120 h, 500 ppm by weight, mortality assessed usually between two and five days after treatment, read-out: Hv mortality (score)
Description: as §1, §2, §3

Plutella xylostella = assay: Pest mortality test against diamond back moth; format: in vivo; conditions: 120 h, 500 ppm by weight, mortality assessed usually between two and five days after treatment, read-out: Px mortality (score)
Description: as §1, §2, §3

CCc1nsc(NC(=O)C(C)c2ccc3oc(-c4c(F)cccc4Cl)nc3c2)c1Cl (stereo not shown) [Compound 1, N-(4-chloro-3-ethylisothiazol-5-yl)-2-[2-(2-chloro-6-fluorophenyl)benzoxazol-5-yl]propionamide]
mortality at 12.5 ppm (Meloidogyne incognita): < 40% | mortality at 500 ppm (Myzus persicae): 80 to 100% | mortality at 500 ppm (Diabrotica balteata): 80 to 100% | mortality at 500 ppm (Drosophila melanogaster): 80 to 100% | mortality at 500 ppm (Heliothis virescens): 80 to 100% | mortality at 500 ppm (Plutella xylostella): 80 to 100%

Cc1nsc(NC(=O)C(C)c2ccc3oc(-c4cccc(Cl)c4Cl)nc3c2)c1Cl (stereo not shown) [Compound 11, N-(4-chloro-3-methylisothiazol-5-yl)-2-[2-(2,3-dichlorophenyl)benzoxazol-5-yl]propionamide]
melting point: 158 to 161 °C
